Experimental data from patent US8334289B2, “Pyridin-2-one compounds and their use as modulators of the dopamine D3 receptor” (Abbott GmbH & Co. KG, priority 2004, dated 2012).

What was measured:
[1] = molecular target: T1, human dopamine D3 receptors (Homo sapiens, UniProt P35462); experiment: Dopamine D3 receptor binding, displacement of [125I]-iodosulpiride; conditions: membranes from HEK-293 cells stably expressing human D3 receptor; 0.1 nM [125I]-iodosulpiride; 25° C., 60 minutes
T1 construct: expressed in transfected cells; host or cells: HEK-293 (membranes)
Procedure: (§1) The substance to be tested was dissolved either in methanol/Chremophor® (BASF-AG) or in dimethyl sulfoxide and then diluted with water to the desired concentration.
(§2) Triplicate mixtures were carried out.
The incubation buffer contained 50 mM Tris, 120 mM NaCl, 5 mM KCl, 2 mM CaCl2, 2 mM MgCl2 and 0.1% bovine serum albumin, 10 μM quinolone, 0.1% ascorbic acid (prepared fresh each day). The buffer was adjusted to pH 7.4 with HCl.
(§3) After incubation at 25° C. for 60 minutes, the mixtures were filtered under vacuum through Whatman GF/B glass fiber filters using a cell harvester. The filters were transferred by a filter transfer system into scintillation vials. After addition of 4 ml of Ultima Gold® (Packard), the samples were shaken for one hour and then the radioactivity was counted in a beta counter (Packard, Tricarb 2000 or 2200CA). The cp values were converted into dpm by means of a standard quench series with the aid of the instrument's own program.
(§4) Evaluation of the inhibition plots took place by iterative nonlinear regression analysis using the Statistical Analysis System (SAS) similar to the “LIGAND” program described by Munson and Rodbard.

[2] = molecular target: T2, human dopamine D2L receptors (long isoform) (Homo sapiens, UniProt P14416); experiment: Dopamine D2L receptor binding, displacement of [125I]-iodospiperone; conditions: Ki(D2L)/Ki(D3); membranes from HEK-293 cells with human D2L and D3 receptors
T2 construct: expressed in transfected cells; host or cells: HEK-293 (membranes)
Procedure: as §1, §2
The incubation buffer contained 50 mM Tris, 120 mM NaCl, 5 mM KCl, 2 mM CaCl2, 2 mM MgCl2 and 0.1% bovine serum albumin. The buffer was adjusted to pH 7.4 with HCl.
as §3, §4

T2 sequence (P14416 whole entry, canonical isoform): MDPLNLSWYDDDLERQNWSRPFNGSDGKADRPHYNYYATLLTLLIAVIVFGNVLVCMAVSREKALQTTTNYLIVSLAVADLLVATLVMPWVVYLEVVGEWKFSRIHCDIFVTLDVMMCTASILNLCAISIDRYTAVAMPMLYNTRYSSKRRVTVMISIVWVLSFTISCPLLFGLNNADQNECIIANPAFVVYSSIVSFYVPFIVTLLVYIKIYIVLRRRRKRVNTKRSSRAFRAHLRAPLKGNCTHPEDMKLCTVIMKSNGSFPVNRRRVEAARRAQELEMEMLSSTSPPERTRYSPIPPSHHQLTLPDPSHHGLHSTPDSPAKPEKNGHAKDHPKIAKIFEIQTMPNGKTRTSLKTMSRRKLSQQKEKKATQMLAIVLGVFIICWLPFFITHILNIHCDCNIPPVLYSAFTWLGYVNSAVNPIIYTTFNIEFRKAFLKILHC
T1 sequence (P35462 whole entry): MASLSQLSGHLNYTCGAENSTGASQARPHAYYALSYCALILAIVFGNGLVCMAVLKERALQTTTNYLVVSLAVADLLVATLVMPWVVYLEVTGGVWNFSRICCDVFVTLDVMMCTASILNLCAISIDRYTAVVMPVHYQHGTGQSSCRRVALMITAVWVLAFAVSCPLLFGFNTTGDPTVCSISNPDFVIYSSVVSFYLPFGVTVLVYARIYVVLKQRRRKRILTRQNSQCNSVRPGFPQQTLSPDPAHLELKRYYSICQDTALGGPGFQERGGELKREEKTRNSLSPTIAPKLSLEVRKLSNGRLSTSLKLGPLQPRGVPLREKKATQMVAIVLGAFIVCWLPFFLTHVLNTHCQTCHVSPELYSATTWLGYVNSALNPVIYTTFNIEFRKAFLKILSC

Structure (SMILES)	Ki [1] [nM]	Selectivity vs. D2L [2]
CCCc1cc(N2CCN(CCCCn3cccc(C)c3=O)CC2)nc(C(C)(C)C)n1 [Example 7, 1-{4-[4-(2-tert-Butyl-6-propylpyrimidin-4-yl)piperazin-1-yl]butyl}-3-methyl-1H-pyridin-2-one]	1.25	129
Cc1cccn(CCCCN2CCN(c3cc(C(F)(F)F)nc(C(C)(C)C)n3)CC2)c1=O [Example 11, 1-{4-[4-(2-tert-Butyl-6-trifluoromethylpyrimidin-4-yl)piperazin-1-yl]butyl}-3-methyl-1H-pyridin-2-one]	2.31	74
COc1cccn(CCCCN2CCN(c3cc(C(F)(F)F)nc(C(C)(C)C)n3)CC2)c1=O [Example 6, 1-{4-[4-(2-tert-Butyl-6-trifluoromethylpyrimidin-4-yl)piperazin-1-yl]butyl}-3-methoxy-1H-pyridin-2-one]	2.2	74

These reach a lower Ki [1]. Values come first.

Ki [1] [nM]	Selectivity vs. D2L [2]	Structure (SMILES)
1.2	51	CCCc1cc(N2CCN(CCCCn3cccc(OC)c3=O)CC2)nc(C(C)(C)C)n1 [Example 5, 1-{4-[4-(2-tert-Butyl-6-propylpyrimidin-4-yl)piperazin-1-yl]butyl}-3-methoxy-1H-pyridin-2-one]
0.84	137	CCCc1cc(N2CCN(CCCCn3ccc(C)cc3=O)CC2)nc(C(C)(C)C)n1.Cl [Example 3, 4-(2-tert-Butyl-6-propylpyrimidin-4-yl)-1-[4-(4-methyl-2-oxopyridin-1(2H)-yl)butyl]piperazin-1-ium chloride]
